In patent US7635572B2, “Methods for conducting assays for enzyme activity on protein microarrays” (Life Technologies Corporation, priority 2004, dated 2009):
Where two headings read alike, the source gives them in different places.

Tests used:
Test in all cases: Further analysis of a plurality of inhibitors and a plurality of kinases on microarray (Example IX, Table 5);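 further: inhibition of each kinase by the inhibitors is given as a qualitative level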;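 on Inhibition level, MAP3K7: level 0 none or unclear then 1 little or marginal then 2 substantial inhibition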;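 on Inhibition level, PRKCI: level 0 none or unclear Level 1 marginal Level 2 substantial inhibition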
Format in all cases: biochemical
[1] = biological target: plurality of kinases (Table 5) (Homo sapiens, UniProt P68400)
[2] = biological target: T1, plurality of kinases (Table 5) (Homo sapiens, UniProt O43318); conditions: plate G9
T1 sequence (O43318 1-606): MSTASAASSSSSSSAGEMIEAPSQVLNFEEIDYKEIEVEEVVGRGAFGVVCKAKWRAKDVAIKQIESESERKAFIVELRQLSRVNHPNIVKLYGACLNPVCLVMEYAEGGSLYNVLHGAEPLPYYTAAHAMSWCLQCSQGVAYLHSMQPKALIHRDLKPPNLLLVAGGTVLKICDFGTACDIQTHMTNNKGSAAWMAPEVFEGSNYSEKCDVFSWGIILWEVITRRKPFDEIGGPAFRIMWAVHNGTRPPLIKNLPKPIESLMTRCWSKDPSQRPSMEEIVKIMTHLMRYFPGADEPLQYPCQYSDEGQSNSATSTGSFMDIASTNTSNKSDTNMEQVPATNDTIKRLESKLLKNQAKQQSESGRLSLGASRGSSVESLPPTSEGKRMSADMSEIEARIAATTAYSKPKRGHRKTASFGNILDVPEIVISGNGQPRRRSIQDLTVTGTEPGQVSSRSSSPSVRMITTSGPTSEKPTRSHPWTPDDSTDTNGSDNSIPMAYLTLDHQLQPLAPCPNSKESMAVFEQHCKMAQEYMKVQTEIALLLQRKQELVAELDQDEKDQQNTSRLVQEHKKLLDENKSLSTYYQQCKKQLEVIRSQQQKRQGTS

[3] = biological target: T2, plurality of kinases (Table 5) (Homo sapiens, UniProt Q8IV63); conditions: plate C12
T2 sequence (Q8IV63 1-474): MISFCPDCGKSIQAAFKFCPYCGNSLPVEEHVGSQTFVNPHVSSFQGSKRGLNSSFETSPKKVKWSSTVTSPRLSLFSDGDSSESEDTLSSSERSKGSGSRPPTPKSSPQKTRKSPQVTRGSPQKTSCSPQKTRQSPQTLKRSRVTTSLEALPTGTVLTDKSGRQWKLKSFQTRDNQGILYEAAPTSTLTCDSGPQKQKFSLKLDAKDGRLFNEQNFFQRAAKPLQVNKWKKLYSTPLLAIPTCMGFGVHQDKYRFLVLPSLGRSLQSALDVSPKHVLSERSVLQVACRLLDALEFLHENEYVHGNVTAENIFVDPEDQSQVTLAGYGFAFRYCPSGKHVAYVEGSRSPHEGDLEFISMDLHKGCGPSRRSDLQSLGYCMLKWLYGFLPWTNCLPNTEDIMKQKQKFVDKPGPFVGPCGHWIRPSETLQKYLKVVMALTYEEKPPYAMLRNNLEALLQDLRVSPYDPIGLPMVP

[4] = biological target: plurality of kinases (Table 5) (Homo sapiens, UniProt P24723); conditions: plate B3
[5] = biological target: T3, plurality of kinases (Table 5) (Homo sapiens, UniProt P41743); conditions: plate A2
T3 sequence (P41743 1-596): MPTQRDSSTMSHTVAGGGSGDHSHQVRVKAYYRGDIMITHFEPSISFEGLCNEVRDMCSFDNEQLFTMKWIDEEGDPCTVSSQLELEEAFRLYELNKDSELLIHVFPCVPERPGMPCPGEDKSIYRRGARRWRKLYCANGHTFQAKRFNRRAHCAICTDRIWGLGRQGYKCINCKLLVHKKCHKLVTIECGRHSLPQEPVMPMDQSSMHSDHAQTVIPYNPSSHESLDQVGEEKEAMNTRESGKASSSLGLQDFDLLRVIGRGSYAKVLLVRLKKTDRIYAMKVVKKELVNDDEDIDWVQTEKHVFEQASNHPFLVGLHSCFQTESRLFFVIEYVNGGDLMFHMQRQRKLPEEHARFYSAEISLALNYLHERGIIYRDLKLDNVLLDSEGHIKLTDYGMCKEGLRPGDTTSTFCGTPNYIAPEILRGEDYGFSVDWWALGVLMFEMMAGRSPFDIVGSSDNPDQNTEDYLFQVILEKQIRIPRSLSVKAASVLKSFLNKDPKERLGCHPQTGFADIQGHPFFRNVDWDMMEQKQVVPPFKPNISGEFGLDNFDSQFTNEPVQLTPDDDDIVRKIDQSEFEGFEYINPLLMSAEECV

[6] = biological target: T4, plurality of kinases (Table 5) (Homo sapiens, UniProt P54753); conditions: plate B5
T4 sequence (P54753 34-998): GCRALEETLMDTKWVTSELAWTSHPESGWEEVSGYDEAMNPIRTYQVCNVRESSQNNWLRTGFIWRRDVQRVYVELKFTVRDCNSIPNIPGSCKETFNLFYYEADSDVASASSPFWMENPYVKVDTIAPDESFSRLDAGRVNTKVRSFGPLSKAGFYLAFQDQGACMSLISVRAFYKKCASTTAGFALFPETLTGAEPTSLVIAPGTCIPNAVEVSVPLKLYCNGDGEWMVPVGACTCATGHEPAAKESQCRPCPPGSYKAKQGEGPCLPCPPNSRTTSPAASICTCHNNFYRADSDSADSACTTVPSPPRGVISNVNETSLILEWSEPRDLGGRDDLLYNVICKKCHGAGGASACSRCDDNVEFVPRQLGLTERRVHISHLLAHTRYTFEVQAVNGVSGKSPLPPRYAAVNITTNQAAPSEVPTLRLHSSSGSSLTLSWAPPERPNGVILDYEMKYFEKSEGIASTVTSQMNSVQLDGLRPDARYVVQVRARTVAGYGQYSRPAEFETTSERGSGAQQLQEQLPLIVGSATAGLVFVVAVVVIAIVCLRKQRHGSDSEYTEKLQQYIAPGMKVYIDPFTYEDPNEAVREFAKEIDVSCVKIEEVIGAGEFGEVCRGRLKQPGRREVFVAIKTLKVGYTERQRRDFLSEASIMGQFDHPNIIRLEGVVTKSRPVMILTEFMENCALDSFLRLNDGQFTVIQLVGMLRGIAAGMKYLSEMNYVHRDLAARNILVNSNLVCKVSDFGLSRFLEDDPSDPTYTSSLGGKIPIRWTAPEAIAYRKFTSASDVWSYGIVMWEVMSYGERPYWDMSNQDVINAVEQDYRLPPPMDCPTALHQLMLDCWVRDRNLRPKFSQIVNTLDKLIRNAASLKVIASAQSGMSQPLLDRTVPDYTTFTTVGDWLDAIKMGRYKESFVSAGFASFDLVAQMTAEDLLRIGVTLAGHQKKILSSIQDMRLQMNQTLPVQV

Sequence of plurality of kinases (Table 5) (Homo sapiens, UniProt P68400) (P68400 whole entry): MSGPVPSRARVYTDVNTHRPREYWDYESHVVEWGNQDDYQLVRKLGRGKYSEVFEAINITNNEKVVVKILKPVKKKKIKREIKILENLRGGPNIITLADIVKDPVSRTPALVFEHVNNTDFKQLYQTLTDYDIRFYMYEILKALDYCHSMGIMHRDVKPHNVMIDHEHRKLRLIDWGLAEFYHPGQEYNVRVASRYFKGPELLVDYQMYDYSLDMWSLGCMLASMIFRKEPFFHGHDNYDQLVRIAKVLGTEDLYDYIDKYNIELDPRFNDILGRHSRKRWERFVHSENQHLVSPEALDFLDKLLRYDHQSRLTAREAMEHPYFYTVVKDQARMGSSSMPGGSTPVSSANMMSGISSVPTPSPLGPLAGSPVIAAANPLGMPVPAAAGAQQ
Sequence of plurality of kinases (Table 5) (Homo sapiens, UniProt P24723) (P24723 whole entry): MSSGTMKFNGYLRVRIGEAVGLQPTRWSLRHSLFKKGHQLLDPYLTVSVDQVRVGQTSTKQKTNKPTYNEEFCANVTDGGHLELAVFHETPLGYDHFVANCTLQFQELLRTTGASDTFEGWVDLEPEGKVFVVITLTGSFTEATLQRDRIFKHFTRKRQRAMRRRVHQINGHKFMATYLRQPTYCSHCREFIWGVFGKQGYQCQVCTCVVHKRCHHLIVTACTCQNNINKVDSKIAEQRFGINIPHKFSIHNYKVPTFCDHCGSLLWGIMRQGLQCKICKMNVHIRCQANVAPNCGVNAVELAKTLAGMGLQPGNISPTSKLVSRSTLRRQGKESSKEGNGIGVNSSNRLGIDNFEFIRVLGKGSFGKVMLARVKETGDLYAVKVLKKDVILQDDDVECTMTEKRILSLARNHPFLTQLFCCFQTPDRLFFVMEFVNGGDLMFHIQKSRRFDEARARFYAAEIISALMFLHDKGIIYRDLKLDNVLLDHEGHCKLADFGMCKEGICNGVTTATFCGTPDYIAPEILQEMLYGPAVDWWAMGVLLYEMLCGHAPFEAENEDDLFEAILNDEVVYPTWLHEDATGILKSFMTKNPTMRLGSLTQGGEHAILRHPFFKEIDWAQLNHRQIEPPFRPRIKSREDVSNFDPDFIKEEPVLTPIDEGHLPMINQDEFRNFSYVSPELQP

Inhibition level, CSNK2A1 ([1]; plate D9, inhibitor 100 uM)	Inhibition level, MAP3K7 ([2]; inhibitor 100 uM)	Compound	Inhibition level, LOC51231 ([3]; inhibitor 100 uM)	Inhibition level, PRKCH ([4]; inhibitor 100 uM)	Inhibition level, PRKCI ([5]; inhibitor 100 uM)	Inhibition level, EPHB3 ([6]; inhibitor 100 uM)	also measured
2	1	O=c1c(-c2ccc(O)cc2)coc2cc(O)cc(O)c12 [Genistein]	2	2	2	2	Inhibition level, CSNK2A1 ([1]; plate D9, Genistein, conc. not given): 0; Inhibition level, MAP3K7 ([2]; Genistein <3.7 mM): 0; Inhibition level, LOC51231 ([3]; Genistein <3.7 mM): 0; Inhibition level, PRKCH ([4]; Genistein, conc. not given): 0; Inhibition level, PRKCI ([5]; Genistein <3.7 mM): 0; Inhibition level, EPHB3 ([6]; Genistein, conc. not given): 0
0	2	O=S(=O)(NCCNC/C=C/c1ccc(Br)cc1)c1cccc2cnccc12 [H-89]	2	2	2	1	
2	2	CC(C)(C)n1nc(-c2ccc(Cl)cc2)c2c(N)ncnc21 [PP2]	0	2	1	2	
		O=c1c(O)c(-c2ccc(O)c(O)c2)oc2cc(O)cc(O)c12 [Quercetin]	0	0	0	2	
2	2	Cn1cc(C2=C(c3cn(CCCSC(=N)N)c4ccccc34)C(=O)NC2=O)c2ccccc21 [Ro-31-8220]	2	2	0	2	Inhibition level, CSNK2A1 ([1]; plate D9, Ro-31-8220, conc. not given): 0; Inhibition level, MAP3K7 ([2]; Ro-31-8220 90 uM): 2; Inhibition level, LOC51231 ([3]; Ro-31-8220 90 uM): 0; Inhibition level, PRKCH ([4]; Ro-31-8220, conc. not given): 2; Inhibition level, PRKCI ([5]; Ro-31-8220 90 uM): 2; Inhibition level, EPHB3 ([6]; Ro-31-8220, conc. not given): 0
		CN[C@@H]1C[C@H]2O[C@@](C)([C@@H]1OC)n1c3ccccc3c3c4c(c5c6ccccc6n2c5c31)C(=O)NC4 [Staurosporine]					Inhibition level, CSNK2A1 [1]: 2; Inhibition level, LOC51231 ([3]; Staurosporine 21.5 uM): 0; Inhibition level, EPHB3 ([6]; Staurosporine, conc. not given): 0

Compound	Inhibition level, CSNK2A1 ([1]; plate D9, inhibitor 100 uM)	Inhibition level, MAP3K7 ([2]; inhibitor 100 uM)	Inhibition level, LOC51231 ([3]; inhibitor 100 uM)	Inhibition level, PRKCH ([4]; inhibitor 100 uM)	Inhibition level, PRKCI ([5]; inhibitor 100 uM)	Inhibition level, EPHB3 ([6]; inhibitor 100 uM)	also measured
N#C/C(=C/c1ccc(O)c(O)c1)C(=O)NCc1ccccc1 [AG 490]	2	0	0	2	2	2	
COc1cc2ncnc(Nc3cccc(Cl)c3)c2cc1OC [AG 1478]	2	0	0	0	0	2	
CC(=O)c1c(O)c(C)c(O)c(Cc2c(O)c3c(c(C(=O)/C=C/c4ccccc4)c2O)OC(C)(C)C=C3)c1O [Rottlerin (Mallotoxin)]	2	2	0	2	2	2	
